From US10214533B2, “N-acyl-(3-substituted)-5,6,7,8-tetrahydro-[1,2,4]triazolo[4,3-a]pyrazines as selective NK-3 receptor antagonists, pharmaceutical composition, methods for use in NK-3 receptor-mediated disorders” (OGEDA SA, priority 2013, dated 2019)

Test system: plasma protein
Assay: Determination of plasma protein binding (rapid equilibrium dialysis)
Format: in vitro ADME
Settings: 4 hours at 37° C.
Protocol: The determination of plasma protein binding (PPB) of a compound is enabled by equilibrium dialysis, an accepted and standard method for reliable estimation of the non-bound drug fraction in plasma. RED (Rapid Equilibrium Dialysis) device insert is made of two side-by-side chambers separated by an O-ring-sealed vertical cylinder of dialysis membrane (MWCO ˜8,000). […] After 4 hours incubation at 37° C. under shaking, an aliquot is removed from each chamber and analyzed by a LC-MS/MS procedure enables the determination of both free and bound drug.
The “free fraction” may be calculated as 100%−% rPPB (i.e. the complementary percentage of that disclosed in Table 4, corresponding to the drug concentration that is unbound and therefore available to engage biological target and elicit pharmacological activity).

SMILES | Exposure (% rPPB), bound drug fraction to the plasma protein
Cc1nsc(-c2nnc3n2CCN(C(=O)c2ccc(F)c(F)c2F)C3)n1 [Compound 7, (3-(3-methyl-1,2,4-thiadiazol-5-yl)-5,6-dihydro-[1,2,4]triazolo[4,3-a]pyrazin-7(8H)-yl)(2,3,4-trifluorophenyl)methanone] | 25%
Cc1nsc(-c2nnc3n2CCN(C(=O)c2ccc(Cl)cc2)C3)n1 [Compound 2, (4-chlorophenyl)(3-(3-methyl-1,2,4-thiadiazol-5-yl)-5,6-dihydro-[1,2,4]triazolo[4,3-a]pyrazin-7(8H)-yl)methanone] | 49%

Further lines, results first:

Exposure (% rPPB), bound drug fraction to the plasma protein | SMILES
28% | Cc1nsc(-c2nnc3n2CCN(C(=O)c2ccc(F)c(F)c2)C3)n1 [Compound 5, (3,4-difluorophenyl)(3-(3-methyl-1,2,4-thiadiazol-5-yl)-5,6-dihydro-[1,2,4]triazolo[4,3-a]pyrazin-7(8H)-yl)methanone]
54% | Cc1nsc(-c2nnc3n2CCN(C(=O)c2ccc(Cl)c(F)c2)C3)n1 [Compound 3, (4-chloro-3-fluorophenyl)(3-(3-methyl-1,2,4-thiadiazol-5-yl)-5,6-dihydro-[1,2,4]triazolo[4,3-a]pyrazin-7(8H)-yl)methanone]
52% | Cc1nsc(-c2nnc3n2CCN(C(=O)c2ccc(F)c(Cl)c2)C3)n1 [Compound 4, (3-chloro-4-fluorophenyl)(3-(3-methyl-1,2,4-thiadiazol-5-yl)-5,6-dihydro-[1,2,4]triazolo[4,3-a]pyrazin-7(8H)-yl)methanone]
27% | Cc1nsc(-c2nnc3n2CCN(C(=O)c2cc(F)c(F)c(F)c2)C3)n1 [Compound 6, (3-(3-methyl-1,2,4-thiadiazol-5-yl)-5,6-dihydro-[1,2,4]triazolo[4,3-a]pyrazin-7(8H)-yl)(3,4,5-trifluorophenyl)methanone]

Test system: circulating LH levels
Assay: Castrated male rat model, circulating luteinizing hormone (LH) levels, oral dosing
Format: in vivo
Settings: castrated male SD rat, single oral dose less than or equal to 30 mg/kg, p<0.05
Protocol: The effect of compounds of the invention to inhibit luteinizing hormone (LH) secretion is determined by the following biological studies. In humans and rodents, castration is well-precedented to permit heightened, persistent GnRH signaling and consequent elevation of circulating LH. Thus, a castrated rat model is used to provide a broad index for measurement of LH inhibition as a marker of test compound inhibition of the GnRH signaling pathway. Castrated adult male Sprague-Dawley (SD) rats (150-175 g) were purchased from Janvier (St Berthevin, France). All animals were housed 2 per cage in a temperature-controlled room (22±2° C.) and 50±5% relative humidity with a 12 hour/12 hour light/dark cycles (lights off at 6 h00 pm). The animals were allowed 3 weeks of postoperative recovery prior to study. Animals were handled on a daily basis. Standard diet and tap water were provided ad libitum. Animal cage litters were changed once a week. On the study day, animals were acclimated to the procedure room for a period of one hour prior to the initiation of the experiment. Compounds of the invention were formulated in 0.5% methyl cellulose. After basal sampling (TO) a single dose of compounds of the invention or vehicle was administrated orally to rats. […] Serum LH levels were determined using radioimmunoassay kit from RIAZEN—Rat LH, Zentech (Liège, Belgium). […]

SMILES | Suppression of circulating LH levels
Cc1nsc(-c2nnc3n2CCN(C(=O)c2ccc(F)cc2)C3)n1 [Compound 1, (4-fluorophenyl)(3-(3-methyl-1,2,4-thiadiazol-5-yl)-5,6-dihydro-[1,2,4]triazolo[4,3-a]pyrazin-7(8H)-yl)methanone] | significantly suppressed circulating LH levels
